Results on three molecules are retold here after patent US20030066102A1, “Plant gene for p-hydroxyphenylpyruvate dioxygenase” (priority 1996, published 2003).

The target in series [1] is T1, Plant p-Hydroxyphenylpyruvate Dioxygenase (Arabidopsis enzyme overexpressed in E. coli) (Arabidopsis thaliana, UniProt P93836).
T1 construct: The first 11 cycles identified […]; initiator Met (ATG start codon put in front of Ser30 by oligos CAM32/CAM33) (N, cleaved yes); made in house; host or cells: E. coli BL21(DE3) carrying pE24CP1 (pET24c(+) backbone), IPTG-induced; cell extract
T1 sequence (P93836 30-445): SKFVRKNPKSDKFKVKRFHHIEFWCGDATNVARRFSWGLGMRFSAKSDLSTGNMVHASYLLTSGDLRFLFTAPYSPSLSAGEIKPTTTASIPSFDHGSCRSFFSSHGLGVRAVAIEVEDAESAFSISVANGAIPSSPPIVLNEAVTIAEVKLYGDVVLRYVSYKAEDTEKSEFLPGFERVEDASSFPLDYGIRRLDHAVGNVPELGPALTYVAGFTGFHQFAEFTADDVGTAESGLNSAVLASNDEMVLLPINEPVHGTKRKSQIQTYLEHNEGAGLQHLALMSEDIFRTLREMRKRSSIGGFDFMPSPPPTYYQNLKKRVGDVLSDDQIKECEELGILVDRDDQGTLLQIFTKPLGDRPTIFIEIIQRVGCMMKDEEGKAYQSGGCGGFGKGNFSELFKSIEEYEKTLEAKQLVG
Briefly: continuous spectrophotometric enol borate-tautomerase assay with overexpressed protein. It is filed as biochemical. The method, then:
The overexpressed protein was also assayed spectrophotometrically at ambient temperature using the enol borate-tautomerase assay (Lin, E. C. C. et al., (1958) J. Biol. Chem. 233:668-673). The assay buffer contained 0.4 M borate (adjusted to pH 7.2 with 0.2 M sodium borate), 4 mM ascorbate, 2.5 mM EDTA, 40 μM p-hydroxyphenylpyruvate, and 0.5 units of tautomerase (Sigma T-6004) per 10 mL buffer. The reaction mix was used when the tautomerization of the substrate was complete (when absorbance at 308 nm had stabilized). The assay was initiated by adding 40 μL of the cell extracts to 960 μL of the assay buffer, and the reaction was followed by measuring the decrease in absorbance at 308 nm.
The enzymatic activity of the overexpressed protein is inhibited by two herbicides known to inhibit plant p-hydroxyphenylpyruvate dioxygenase: Sulcotrione (2-(2-chloro-4-methanesulfonylbenzoyl)-1,3-cyclohexanedione); and Isoxaflutole (5-cyclopropylisoxazol-4-yl 2-mesyl-4-trifluoromethylphenyl ketone). These two compounds were tested against the overexpressed protein using both the ^14CO2 and the continuous spectrophotometric enol borate-tautomerase assays. Both compounds were added to the assay buffers in 10 μL of acetone or dimethyl sulfoxide. The I50 values (concentration inhibiting the enzyme 50%) were calculated based on the percent inhibition observed over several concentrations of the inhibitor.

Series [2] deals with T1, Plant p-Hydroxyphenylpyruvate Dioxygenase (Arabidopsis enzyme overexpressed in E. coli). Briefly: 14CO2 release assay from 14C-p-hydroxyphenylpyruvate with overexpressed protein. In kind it is biochemical. The method, then: Cell cultures with different plasmid constructs were extracted as described above and assayed by measuring the formation of ^14Co2 from [1-^14C]-p-hydroxyphenylpyruvate or ^14CO2 and ^14C-homogentisate from [U-^14C]-p-hydroxyphenylpyruvate (Lindblad, B., (1971) Clin. Chim. Acta 34:113-121; and Lindstedt, S. and Odelhog, B., (1987) Methods in Enzymology 142:143-148). The labeled substrate was prepared from [1-^14C]-L-tyrosine (55 mCi/mmol; American Radiolabeled Chemicals, Inc., St. Louis, Mo.) or [U-^14C]-L-tyrosine (498 mCi/mmol; DuPont NEN, Boston, Mass.). […]
The assay was performed in 14 mL culture tubes capped with serum stoppers through which a polypropylene well containing 200 μL of 1 N KOH was suspended. […] Six mL of Formula-989 scintillation fluid (Packard Insturments, Meriden, Conn.) was added to the vials and the ^14C radioactivity was determined by scintillation counting.
The enzymatic activity of the overexpressed protein is inhibited by two herbicides known to inhibit plant p-hydroxyphenylpyruvate dioxygenase: Sulcotrione (2-(2-chloro-4-methanesulfonylbenzoyl)-1,3-cyclohexanedione); and Isoxaflutole (5-cyclopropylisoxazol-4-yl 2-mesyl-4-trifluoromethylphenyl ketone). […] The I50 values (concentration inhibiting the enzyme 50%) were calculated based on the percent inhibition observed over several concentrations of the inhibitor.

Series [3] is described as follows: storage stability of purified enzyme constructs, activity by tautomerase coupled spectrophotometric assay. It is filed as physicochemical, Arabidopsis thaliana. The conditions noted are these: 1 mg/mL in 20 mM bis tris-propane buffer pH 7.2, 5 mM ascorbate, 1 mM reduced glutathione, 0.1 mM ferrous ammonium sulfate, stored at 4 °C. The text has this: Two different constructs for Arabidopsis thaliana p-hydroxyphenyl-pyruvate dioxygenase, one containing the full-length sequence, PDO-B as described in Example 5 and produced from plasmid pE24PDO-B, and one containing the truncated sequence lacking the putative chloroplast leader sequence, PDO-A as produced from plasmid pE24CP1, were both purified to the same extent using a Pharmacia phenyl Sepharose hydrophobic interaction column followed by gel filtration chromatography on Pharmacia Sephacryl 300. The two proteins were diluted to 1 mg/mL in 20 mM bis tris-propane buffer, pH 7.2 containing 5 mM ascorbate, 1 mM reduced glutathione and 0.1mM ferrous ammonium sulfate and stored in a refrigerator at 4 ° C. for up to 10 days. Aliquots were removed at various times and assayed for activity using the tautomerase coupled spectrophotometric assay. […] In addition, the activity of the full length enzyme could be restored by incubation with iron and reducing agent, reduced glutathione or ascorbate, or by dialysis against buffer containing iron and reducing agent. In contrast, the activity of the truncated enzyme could not be restored by incubation with or dialysis against buffer containing iron and reducing agent.

Take `CS(=O)(=O)c1ccc(C(=O)C2C(=O)CCCC2=O)c(Cl)c1` [sulcotrione, 2-(2-chloro-4-methanesulfonylbenzoyl)-1,3-cyclohexanedione]: the IC50 in series [1] worked out at 44 nM; in series [2], 43 nM. `CS(=O)(=O)c1cc(C(F)(F)F)ccc1C(=O)c1cnoc1C1CC1` [isoxaflutole, 5-cyclopropylisoxazol-4-yl 2-mesyl-4-trifluoromethylphenyl ketone]: the IC50 in series [1] (concentration inhibiting the enzyme 50%, absorbance at 308 nm, read-out: I50 value derived from spectrophotometric assay) was found to be 1040 nM; in series [2] (concentration inhibiting the enzyme 50%, inhibitor added in 10 μL acetone or dimethyl sulfoxide, read-out: I50 value derived from 14CO2 assay) it was 409 nM.

B1: PDO-B: full-length Arabidopsis thaliana p-hydroxyphenylpyruvate dioxygenase produced from plasmid pE24PDO-B (protein, UniProt P93836 1-445, looked up)
chain: MGHQNAAVSENQNHDDGAASSPGFKLVGFSKFVRKNPKSDKFKVKRFHHIEFWCGDATNVARRFSWGLGMRFSAKSDLSTGNMVHASYLLTSGDLRFLFTAPYSPSLSAGEIKPTTTASIPSFDHGSCRSFFSSHGLGVRAVAIEVEDAESAFSISVANGAIPSSPPIVLNEAVTIAEVKLYGDVVLRYVSYKAEDTEKSEFLPGFERVEDASSFPLDYGIRRLDHAVGNVPELGPALTYVAGFTGFHQFAEFTADDVGTAESGLNSAVLASNDEMVLLPINEPVHGTKRKSQIQTYLEHNEGAGLQHLALMSEDIFRTLREMRKRSSIGGFDFMPSPPPTYYQNLKKRVGDVLSDDQIKECEELGILVDRDDQGTLLQIFTKPLGDRPTIFIEIIQRVGCMMKDEEGKAYQSGGCGGFGKGNFSELFKSIEEYEKTLEAKQLVG
modifications: full-length
Take B1: in series [3], the “half-life for the activity” value came out at 96 h.
